In patent publication US12157746B2, “Tetrahydro-1H-pyrazino[2,1-a]isoindolylquinoline compounds for the treatment of autoimmune disease” (F. HOFFMANN-LA ROCHE AG, priority 2018, dated 2024):

Experiments:
human TLR8 = molecular target: T1, human TLR8 (Homo sapiens, UniProt Q9NR97); test: HEK293-Blue-hTLR-8 cells assay; type: cell-based; conditions: HEK293-Blue-hTLR8 cells, R848 stimulation, 20 hrs, SEAP reporter; read-out: HEK/hTLR8 IC50
T1 sequence (Q9NR97 27-1041): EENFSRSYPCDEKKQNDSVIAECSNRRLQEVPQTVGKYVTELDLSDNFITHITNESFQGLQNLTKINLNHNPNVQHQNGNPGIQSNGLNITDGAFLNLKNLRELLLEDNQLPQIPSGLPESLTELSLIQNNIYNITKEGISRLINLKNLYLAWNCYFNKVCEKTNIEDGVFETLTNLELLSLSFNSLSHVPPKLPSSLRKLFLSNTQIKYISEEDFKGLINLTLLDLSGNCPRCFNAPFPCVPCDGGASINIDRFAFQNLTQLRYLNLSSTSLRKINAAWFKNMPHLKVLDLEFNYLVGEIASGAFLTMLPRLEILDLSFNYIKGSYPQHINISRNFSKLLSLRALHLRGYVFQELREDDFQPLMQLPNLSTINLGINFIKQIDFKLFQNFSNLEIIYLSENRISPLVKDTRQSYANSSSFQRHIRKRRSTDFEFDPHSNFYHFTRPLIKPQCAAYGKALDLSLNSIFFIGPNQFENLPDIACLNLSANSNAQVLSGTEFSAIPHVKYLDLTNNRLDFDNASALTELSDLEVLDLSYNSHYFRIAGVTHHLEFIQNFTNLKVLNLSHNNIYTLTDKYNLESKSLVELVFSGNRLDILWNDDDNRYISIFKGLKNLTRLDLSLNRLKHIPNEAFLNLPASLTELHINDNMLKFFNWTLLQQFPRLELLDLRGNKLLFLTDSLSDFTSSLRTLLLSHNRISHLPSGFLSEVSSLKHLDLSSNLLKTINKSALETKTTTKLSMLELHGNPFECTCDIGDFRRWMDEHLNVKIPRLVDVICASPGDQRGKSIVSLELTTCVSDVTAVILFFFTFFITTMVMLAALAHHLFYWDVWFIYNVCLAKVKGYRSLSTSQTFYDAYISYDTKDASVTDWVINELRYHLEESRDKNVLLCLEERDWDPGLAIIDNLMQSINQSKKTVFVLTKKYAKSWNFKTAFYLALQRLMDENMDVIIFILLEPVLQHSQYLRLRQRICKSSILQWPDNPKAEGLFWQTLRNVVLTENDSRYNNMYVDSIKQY
Outline: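 Antagonism read out in HEK293-Blue-hTLR8 cells carrying an NF-κB/AP-1-driven SEAP reporter, stimulated with R848 (10 μL of 60 uM stock added) alongside serially diluted compound (1% DMSO), 20 h at 37° C. Supernatant SEAP measured with QUANTI-Blue after 2 h at 37° C, absorbance at 620-655 nm.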

hERG K+ channel = molecular target: T2, hERG K+ channel (Homo sapiens, UniProt Q12809); test: hERG channel inhibition assay; type: cell-based; conditions: patch-clamp (voltage-clamp, whole-cell); for IC50: CHO cells expressing hERG; for IC20: human, CHO cells stably expressing hERG
T2 construct: expressed in transfected cells; host or cells: CHO (Chinese hamster ovary) cells, CHOhERG
Procedure: hERG Channel Inhibition Assay
The hERG K^+ channels were cloned in humans and stably expressed in a CHO (Chinese hamster ovary) cell line. CHOhERG cells were used for patch-clamp (voltage-clamp, whole-cell) experiments. Cells were stimulated by a voltage pattern to activate hERG channels and conduct IKhERG currents (rapid delayed outward rectifier potassium current of the hERG channel). After the cells were stabilized for a few minutes, the amplitude and kinetics of IKhERG were recorded at a stimulation frequency of 0.1 Hz (6 bpm). Thereafter, the test compound was added to the preparation at increasing concentrations. For each concentration, an attempt was made to reach a steady-state effect, usually, this was achieved within 3-10 min at which time the next highest concentration was applied. The amplitude and kinetics of IKhERG are recorded in each concentration of the drug which were compared to the control values (taken as 100%). (references: Redfem W S, Carlsson L, Davis A S, Lynch W G, MacKenzie I, Palethorpe S, Siegl P K, Strang I, Sullivan A T, Wallis R, Camm A J, Hammond T G. 2003; Relationships between preclinical cardiac electrophysiology, clinical QT interval prolongation and torsade de pointes for a broad range of drugs: evidence for a provisional safety margin in drug development. Cardiovasc. Res. 58:32-45, Sanguinetti M C, Tristani-Firouzi M. 2006; hERG potassium channels and cardiac arrhythmia. Nature 440:463-469, Webster R, Leishman D, Walker D. 2002; Towards a drug concentration effect relationship for QT prolongation and torsades de pointes. Curr. Opin. Drug Discov. Devel. 5:116-26).

T2 sequence (Q12809 whole entry): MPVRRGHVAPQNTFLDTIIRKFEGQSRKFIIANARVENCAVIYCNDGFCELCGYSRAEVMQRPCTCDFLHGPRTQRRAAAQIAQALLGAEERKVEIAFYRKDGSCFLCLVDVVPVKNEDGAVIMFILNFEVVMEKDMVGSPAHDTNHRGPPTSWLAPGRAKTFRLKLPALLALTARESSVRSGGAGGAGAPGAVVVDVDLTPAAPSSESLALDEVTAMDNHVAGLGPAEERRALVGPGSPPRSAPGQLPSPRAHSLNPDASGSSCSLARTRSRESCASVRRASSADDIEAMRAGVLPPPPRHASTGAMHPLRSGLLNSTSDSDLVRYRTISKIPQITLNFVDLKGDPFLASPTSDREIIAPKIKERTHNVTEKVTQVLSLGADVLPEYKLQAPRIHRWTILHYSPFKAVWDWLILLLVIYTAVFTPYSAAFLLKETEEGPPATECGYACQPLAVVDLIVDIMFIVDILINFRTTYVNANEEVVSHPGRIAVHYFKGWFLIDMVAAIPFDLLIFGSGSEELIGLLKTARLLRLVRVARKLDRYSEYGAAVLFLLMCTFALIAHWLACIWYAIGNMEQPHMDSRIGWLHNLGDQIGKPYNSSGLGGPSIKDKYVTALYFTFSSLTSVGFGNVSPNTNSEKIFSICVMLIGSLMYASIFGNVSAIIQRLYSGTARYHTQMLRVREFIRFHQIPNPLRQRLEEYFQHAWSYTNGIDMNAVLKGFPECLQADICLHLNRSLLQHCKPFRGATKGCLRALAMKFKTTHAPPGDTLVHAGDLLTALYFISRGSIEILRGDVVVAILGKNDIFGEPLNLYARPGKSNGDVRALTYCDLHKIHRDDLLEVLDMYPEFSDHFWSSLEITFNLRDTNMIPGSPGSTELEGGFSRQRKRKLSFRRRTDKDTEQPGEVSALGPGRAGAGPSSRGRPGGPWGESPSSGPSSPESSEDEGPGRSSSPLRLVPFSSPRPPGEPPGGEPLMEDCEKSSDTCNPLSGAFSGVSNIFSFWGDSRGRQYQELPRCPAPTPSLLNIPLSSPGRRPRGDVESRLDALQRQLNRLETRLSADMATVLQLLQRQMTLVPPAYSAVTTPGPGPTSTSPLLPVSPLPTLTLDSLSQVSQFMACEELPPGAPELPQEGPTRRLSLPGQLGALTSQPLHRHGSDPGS

**Q.** `C[C@@H]1CN(c2ccc(C#N)c3ncccc23)C[C@@H]2c3ccc(N4CCOC[C@@H](N)C4)cc3CN12` [Example 54B, 5-[(4R,10bS)-8-[(6S)-6-amino-1,4-oxazepan-4-yl]-4-methyl-3,4,6,10b-tetrahydro-1H-pyrazino[2,1-a]isoindol-2-yl]quinoline-8-carbonitrile] was tested. Which IC50 (human TLR8) did it give?
**A.** The IC50 was under 3.2 nM.

**Q.** And the IC50 (hERG K+ channel)?
**A.** Its IC50 is over 20 µM.

**Q.** And the IC20 (hERG K+ channel)?
**A.** Its IC20 is over 10 µM.

**Q.** What does the source list for `C[C@@H]1CN(c2ccc(C#N)c3ncccc23)C[C@@H]2c3ccc(NCCN(C)C)cc3CN12` [Example 26, 5-[(4R,10bS)-8-[2-(dimethylamino)ethylamino]-4-methyl-3,4,6,10b-tetrahydro-1H-pyrazino[2,1-a]isoindol-2-yl]quinoline-8-carbonitrile]?
**A.** IC50 (human TLR8): < 3.2 nM; IC50 (hERG K+ channel): > 20 µM; IC20 (hERG K+ channel): 5 µM

**Q.** For `C[C@@H]1CN(c2ccc(C#N)c3ncccc23)C[C@@H]2c3ccc(NC4CNC4)cc3CN12` [Example 28, 5-[(4R,10S)-8-(azetidin-3-ylamino)-4-methyl-3,4,6,10b-tetrahydro-1H-pyrazino[2,1-a]isoindol-2-yl]quinoline-8-carbonitrile], which IC50 (human TLR8) is on record?
**A.** The IC50 was under 3.2 nM.

**Q.** What about the IC50 (hERG K+ channel) of the same molecule?
**A.** The IC50 was over 20 µM.

**Q.** And the IC20 (hERG K+ channel)?
**A.** Its IC20 is over 10 µM.

**Q.** What does the source list for `C[C@@H]1CN(c2ccc(C#N)c3ncccc23)C[C@@H]2c3ccc(N4CCNC[C@H](O)C4)cc3CN12` [Example 53A, 5-[(4R,10bS)-8-[(6S)-6-hydroxy-1,4-diazepan-1-yl]-4-methyl-3,4,6,10b-tetrahydro-1H-pyrazino[2,1-a]isoindol-2-yl]quinoline-8-carbonitrile]?
**A.** IC50 (human TLR8): < 3.2 nM; IC50 (hERG K+ channel): > 20 µM; IC20 (hERG K+ channel): 6.6 µM

**Q.** With `C[C@@H]1CN(c2ccc(C#N)c3ncccc23)C[C@@H]2c3ccc(N4CC5(CNCCO5)C4)cc3CN12` [Example 35, 5-[(4R,10bS)-4-methyl-8-(5-oxa-2,8-diazaspiro[3.5]nonan-2-yl)-3,4,6,10b-tetrahydro-1H-pyrazino[2,1-a]isoindol-2-yl]quinoline-8-carbonitrile] as the molecule, how does the IC50 (human TLR8) read?
**A.** The IC50 was under 3.2 nM.

**Q.** What about the IC50 (hERG K+ channel) of the same molecule?
**A.** Its IC50 is over 20 µM.

**Q.** What about the IC20 (hERG K+ channel) of the same molecule?
**A.** The IC20 was over 10 µM.

**Q.** For `C[C@@H]1CN(c2ccc(C#N)c3ncccc23)C[C@@H]2c3ccc(N4CC5(CN(C)C5)C4)cc3CN12` [Example 38, 5-[(4R,10bS)-4-methyl-8-(6-methyl-2,6-diazaspiro[3.3]heptan-2-yl)-3,4,6,10b-tetrahydro-1H-pyrazino[2,1-a]isoindol-2-yl]quinoline-8-carbonitrile], which IC50 (human TLR8) is on record?
**A.** The IC50 was under 0.3 nM.

**Q.** What about the IC50 (hERG K+ channel) of the same molecule?
**A.** Its IC50 is over 20 µM.

**Q.** And the IC20 (hERG K+ channel)?
**A.** The IC20 was over 10 µM.

**Q.** With `C[C@@H]1CN(c2ccc(C#N)c3ncccc23)CC2c3ccc(N4C[C@H](N)[C@@H](O)C4)cc3CN21` (relative stereo) [Example 21, 5-[(4R,10bS)-8-[trans-3-amino-4-hydroxy-pyrrolidin-1-yl]-4-methyl-3,4,6,10b-tetrahydro-1H-pyrazino[2,1-a]isoindol-2-yl]quinoline-8-carbonitrile] as the molecule, how does the IC50 (human TLR8) read?
**A.** Its IC50 is under 3.2 nM.

**Q.** And the IC50 (hERG K+ channel)?
**A.** The IC50 was over 20 µM.

**Q.** What about the IC20 (hERG K+ channel) of the same molecule?
**A.** The IC20 was over 10 µM.
